This is an account of results in patent publication US20200181104A1, “SSAO INHIBITORS AND USES THEREOF” (METACRINE, INC., priority 2018, published 2020).

Structures can show the parent of a compound that is named as a salt. Bounds are passed on as bounds.

The experiment addresses T1, Recombinant Human SSAO/VAP-1/AOC3 (Homo sapiens, UniProt Q16853).
T1 construct: purchased R&D systems 3957-AO
T1 sequence (Q16853 1-763): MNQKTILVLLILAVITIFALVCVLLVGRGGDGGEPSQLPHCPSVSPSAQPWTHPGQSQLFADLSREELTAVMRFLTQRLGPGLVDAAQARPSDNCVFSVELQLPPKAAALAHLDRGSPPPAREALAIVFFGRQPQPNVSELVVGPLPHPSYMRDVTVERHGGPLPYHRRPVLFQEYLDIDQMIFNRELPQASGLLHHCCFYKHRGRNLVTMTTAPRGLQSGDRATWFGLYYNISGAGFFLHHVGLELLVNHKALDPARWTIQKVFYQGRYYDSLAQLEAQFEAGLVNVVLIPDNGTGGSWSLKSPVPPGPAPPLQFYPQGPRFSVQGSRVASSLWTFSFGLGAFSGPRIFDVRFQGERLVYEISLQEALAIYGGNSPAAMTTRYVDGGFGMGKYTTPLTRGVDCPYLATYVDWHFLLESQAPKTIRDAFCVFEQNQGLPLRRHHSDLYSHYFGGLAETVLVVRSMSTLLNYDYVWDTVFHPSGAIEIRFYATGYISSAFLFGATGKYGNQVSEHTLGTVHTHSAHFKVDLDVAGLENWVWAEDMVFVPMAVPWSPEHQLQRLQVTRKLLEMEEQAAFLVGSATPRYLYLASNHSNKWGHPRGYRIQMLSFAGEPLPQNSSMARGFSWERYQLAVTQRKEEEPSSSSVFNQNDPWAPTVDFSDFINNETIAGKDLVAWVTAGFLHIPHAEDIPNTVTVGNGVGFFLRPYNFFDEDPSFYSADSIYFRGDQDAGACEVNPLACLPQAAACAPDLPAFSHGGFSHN
Description: Human Semicarbazide-Sensitive Amine Oxidase (SSAO) Assay. Format: biochemical. The note with it: recombinant enzyme, 30 minutes preincubation at 37° C., benzylamine substrate, Amplex Ultra Red/HRP fluorescence. As to the method: Compounds were dissolved in DMSO to provide a Concentration Response Curve (CRC; at 500 times the final concentration) over a range of 6-10 dilutions.
Recombinant Human SSAO/VAP-1/AOC3 (R&D systems; Catalog #3957-AO) was used to screen compound potency in vitro, according to previously described methods (J Pharmacol Exp Ther. 2013 November; 347(2):365-74). SSAO enzyme was suspended in 50 mM HEPES buffer to a working concentration of 2.5 μg/ml and 40 μL of this enzyme mixture was then added to each well of a F16 Black Maxisorp 96 well Plate (Nunc, Catalog #475515). Ten microliters of each test compound (at 5 times the final concentration) were added to each well, resulting in a final well volume of 50 μL of the enzyme and inhibitor mixture. The compounds were preincubated with the enzyme for 30 minutes at 37° C., prior to the addition of a 40 μL volume of Amplex Ultra Red (125 uM AUR; Molecular Probes, Catalog # A36006)/Horseradish peroxidase (2.5 U/ml HRP; Sigma-Aldrich Catalog # P8375) oxidase detection reagent containing cytochrome C ([…]; Sigma-Aldrich Catalog # C7752). Cytochrome C was included in the AUR/HRP detection mixture to reduce the background fluorescence that can occur via the spontaneous redox reaction between AUR and HRP. The SSAO enzyme reaction was then initiated by adding 10 μL of the SSAO substrate, benzylamine (Sigma-Aldrich Catalog # B5136), and SSAO activity was measured in kinetic mode over a 30-120 minute sampling period (excit. 544 nm; emit 590 nm; cut off 570 nm; medium gain) to obtain IC50 values for enzyme activity in each treatment well.
One may read the IC50 as the concentration needed to halve the response being measured. Turning to `NC/C(=C\F)COc1ccc(C23CC(C(=O)NC4CCOCC4)(C2)C3)cc1` [Compound 3, (E)-3-(4-((2-(aminomethyl)-3-fluoroallyl)oxy)phenyl)-N-(tetrahydro-2H-pyran-4-yl)bicyclo[1.1.1]pentane-1-carboxamide], the half-inhibitory concentration (IC50) is at most 10 nM. As for `CC1(C)CC(NC(=O)C23CCC(c4ccc(OC/C(=C/F)CN)cc4)(CC2)CC3)C1` [Compound 2.136, (E)-4-(4-((2-(aminomethyl)-3-fluoroallyl)oxy)phenyl)-N-(3,3-dimethylcyclobutyl)bicyclo [2.2.2]octane-1-carboxamide], the IC50 was at most 10 nM. Consider `CNC(=O)C12CCC(c3ccc(OC/C(=C\F)CN)c(C)c3)(CC1)CC2` [Compound 2.01, (Z)-4-(4-((2-(aminomethyl)-3-fluoroallyl)oxy)-3-methylphenyl)-N-methylbicyclo[2.2.2]octane-1-carboxamide], for which the IC50 was at most 10 nM.

As for `NC/C(=C\F)COc1ccc(C23CCC(C(=O)NCC4(O)CCCC4)(CC2)CC3)cc1` [Compound 2.100, (E)-4-(4-((2-(aminomethyl)-3-fluoroallyl)oxy)phenyl)-N-((1-hydroxycyclopentyl)methyl) bicyclo[2.2.2]octane-1-carboxamide], the IC50 was at most 10 nM.

Take `NC/C(=C\F)COc1ccc(C23CCC(C(=O)NCCN4CCOCC4)(CC2)CC3)cc1` [Compound 2.75, (E)-4-(4-((2-(aminomethyl)-3-fluoroallyl)oxy)phenyl)-N-(2-morpholinoethyl)bicyclo[2.2.2] octane-1-carboxamide]: the IC50 was at most 10 nM. In the case of `COCCOC12CCC(c3ccc(OC/C(=C/F)CN)cc3)(CC1)CC2` [Compound 8.03, (E)-3-Fluoro-2-((4-(4-(2-methoxyethoxy)bicyclo[2.2.2]octan-1-yl)phenoxy)methyl)prop-2-en-1-amine Hydrochloride], the IC50 was at most 10 nM. Take `COCCOC1CN(C(=O)C23CCC(c4ccc(OC/C(=C/F)CN)cc4)(CC2)CC3)C1` [Compound 2.90, (E)-(4-(4-((2-(aminomethyl)-3-fluoroallyl)oxy)phenyl)bicyclo [2.2.2]octan-1-yl)(3-(2-methoxyethoxy)azetidin-1-yl)methanone]: the IC50 was at most 10 nM. With `NC/C(=C\F)COc1ccc(C23CCC(C(=O)NCCCCl)(CC2)CC3)cc1` [Compound 2.26, (E)-4-(4-((2-(aminomethyl)-3-fluoroallyl)oxy)phenyl)-N-(3-chloropropyl)bicyclo[2.2.2] octane-1-carboxamide], the IC50 was at most 10 nM.

Consider `NC/C(=C\F)COc1ccc(C23CCC(C(=O)Nc4ncco4)(CC2)CC3)cc1` [Compound 2.76, (E)-4-(4-((2-(aminomethyl)-3-fluoroallyl)oxy)phenyl)-N-(oxazol-2-yl)bicyclo[2.2.2]octane-1-carboxamide], for which the IC50 is at most 10 nM.

With `NC/C(=C\F)COc1ccc(C23CCC(C(=O)NCc4ccnnc4)(CC2)CC3)cc1` [Compound 2.139, (E)-4-(4-((2-(aminomethyl)-3-fluoroallyl)oxy)phenyl)-N-(pyridazin-4-ylmethyl)bicyclo[2.2.2]octane-1-carboxamide], the IC50 is at most 10 nM. Regarding `NC/C(=C\F)COc1ccc(C23CCC(C(=O)NC4CCOCC4)(CC2)CC3)cc1` [Compound 2.06, (E)-4-(4-((2-(Aminomethyl)-3-fluoroallyl)oxy)phenyl)-N-(tetrahydro-2H-pyran-4-yl)bicyclo[2.2.2]octane-1-carboxamide Hydrochloride], the IC50 is at most 10 nM. In the case of `NC/C(=C\F)COc1ccc(C23CCC(C(=O)N4CC5(CCCCO5)C4)(CC2)CC3)cc1` [Compound 2.143, (E)-(4-(4-((2-(aminomethyl)-3-fluoroallyl)oxy)phenyl)bicyclo [2.2.2]octan-1-yl)(5-oxa-2-azaspiro[3.5]nonan-2-yl)methanone], the IC50 is at most 10 nM. With `COc1ncccc1CNC(=O)C12CCC(c3ccc(OC/C(=C/F)CN)cc3)(CC1)CC2` [Compound 2.137, (E)-4-(4-((2-(aminomethyl)-3-fluoroallyl)oxy)phenyl)-N-((2-methoxypyridin-3-yl)methyl)bicyclo[2.2.2]octane-1-carboxamide], the IC50 is at most 10 nM. On to `NC/C(=C\F)COc1ccc(C23CCC(C(=O)NC4CCC5(CC4)COC5)(CC2)CC3)cc1` [Compound 2.106, (E)-4-(4-((2-(aminomethyl)-3-fluoroallyl)oxy)phenyl)-N-(2-oxaspiro[3.5]nonan-7-yl)bicyclo[2.2.2]octane-1-carboxamide], for which the IC50 is at most 10 nM. With `Cc1cncc(CNC(=O)C23CCC(c4ccc(OC/C(=C/F)CN)cc4)(CC2)CC3)n1` [Compound 2.157, (E)-4-(4-((2-(aminomethyl)-3-fluoroallyl)oxy)phenyl)-N-((6-methylpyrazin-2-yl)methyl)bicyclo[2.2.2]octane-1-carboxamide], the IC50 is at most 10 nM. To `NC/C(=C\F)COc1ccc(C23CCC(C(=O)NC4[C@H]5COC[C@H]45)(CC2)CC3)cc1` (stereo in doubt) [Compound 2.66, 4-(4-(((E)-2-(aminomethyl)-3-fluoroallyl)oxy)phenyl)-N-((1R,5S,6s)-3-oxabicyclo[3.1.0]hexan-6-yl)bicyclo[2.2.2]octane-1-carboxamide] belongs at most 10 nM; to `CN(C(=O)C12CCC(c3ccc(OC/C(=C/F)CN)cc3)(CC1)CC2)C1CCOCC1` [Compound 2.16, (E)-4-(4-((2-(amino-methyl)-3-fluoroallyl)oxy)phenyl)-N-methyl-N-(tetrahydro-2H-pyran-4-yl)bicyclo[2.2.2] octane-1-carboxamide], at most 10 nM; to `N#CC1CCCC1NC(=O)C12CCC(c3ccc(OC/C(=C/F)CN)cc3)(CC1)CC2` (stereo not shown) [Compound 2.156, (E)-4-(4-((2-(aminomethyl)-3-fluoroallyl)oxy)phenyl)-N-(2-cyanocyclopentyl)bicyclo[2.2.2] octane-1-carboxamide], at most 10 nM. To `CO[C@@H]1CCN(C(=O)C23CCC(c4ccc(OC/C(=C/F)CN)cc4)(CC2)CC3)C1` [Compound 2.133, (R,E)-(4-(4-((2-(aminomethyl)-3-fluoroallyl)oxy)phenyl)bicyclo[2.2.2]octan-1-yl)(3-methoxypyrrolidin-1-yl)methanone] belongs at most 10 nM; to `NC/C(=C\F)COc1ccc(C23CCC(C(=O)NCCC(=O)O)(CC2)CC3)cc1` [Compound 2.08, (E)-3-(4-(4-((2-(aminomethyl)-3-fluoroallyl)oxy)phenyl)bicyclo[2.2.2]octane-1-carboxamido)propanoic acid], at most 10 nM; to `COC1(CNC(=O)C23CCC(c4ccc(OC/C(=C/F)CN)cc4)(CC2)CC3)CCOCC1` [Compound 2.98, (E)-4-(4-((2-(aminomethyl)-3-fluoroallyl)oxy)phenyl)-N-((4-methoxytetrahydro-2H-pyran-4-yl)methyl)bicyclo[2.2.2]octane-1-carboxamide], at most 10 nM.

For the molecule `CO[C@@H](C)CNC(=O)C12CCC(c3ccc(OC/C(=C/F)CN)cc3)(CC1)CC2` [Compound 2.125, (S,E)-4-(4-((2-(aminomethyl)-3-3-fluoroallyl)oxy)phenyl)-N-(2-methoxypropyl)bicyclo[2.2.2] octane-1-carboxamide], the IC50 was at most 10 nM.
